In BigSolDB 2.1:

O=C(O)c1cccc(C(=O)O)c1
Conditions | solubility (mole fraction)
in ethanol, 294.35 K | 0.004
in ethanol, 296.95 K | 0.0042
in ethanol, 298.15 K | 0.0043
in ethanol, 300.55 K | 0.0047
in ethanol, 306.15 K | 0.0051
in ethanol, 308.85 K | 0.0053
in ethanol, 310.85 K | 0.0056
in ethanol, 313.65 K | 0.0063
in ethanol, 318.35 K | 0.0068
in ethanol, 320.45 K | 0.0072
in ethanol, 324.15 K | 0.0075
in ethanol, 326.75 K | 0.0078
in ethanol, 330.85 K | 0.0085
in ethanol, 331.75 K | 0.0089
in ethanol, 335.05 K | 0.0093
in isobutanol, 318.65 K | 0.0025
in isobutanol, 323.55 K | 0.0033
in isobutanol, 327.85 K | 0.004
in isobutanol, 331.05 K | 0.0047
in isobutanol, 336.15 K | 0.0055
in isobutanol, 340.05 K | 0.0061
in isobutanol, 343.05 K | 0.0066
in isobutanol, 346.65 K | 0.0072
in isobutanol, 348.95 K | 0.0079
in isobutanol, 351.05 K | 0.0085
in isobutanol, 355.05 K | 0.0092
in isobutanol, 356.05 K | 0.0098
in isobutanol, 360.75 K | 0.0108
in isopropanol, 304.65 K | 0.0046
in isopropanol, 308.45 K | 0.0052
in isopropanol, 310.95 K | 0.0057
in isopropanol, 316.45 K | 0.0063
in isopropanol, 319.45 K | 0.0068
in isopropanol, 322.15 K | 0.0075
in isopropanol, 324.85 K | 0.0081
in isopropanol, 326.95 K | 0.0086
in isopropanol, 331.35 K | 0.0095
in isopropanol, 334.35 K | 0.0103
in isopropanol, 337.55 K | 0.0111
in isopropanol, 342.25 K | 0.012
in isopropanol, 344.25 K | 0.0126
in methanol, 288.35 K | 0.0029
in methanol, 292.45 K | 0.0031
in methanol, 295.65 K | 0.0032
in methanol, 298.65 K | 0.0035
in methanol, 299.65 K | 0.0036
in methanol, 302.15 K | 0.004
in methanol, 305.25 K | 0.0044
in methanol, 308.45 K | 0.0047
in methanol, 311.85 K | 0.0049
in methanol, 313.45 K | 0.0051
in methanol, 316.65 K | 0.0056
in methanol, 319.25 K | 0.0056
in methanol, 320.15 K | 0.006
in methanol, 323.15 K | 0.0064
in methanol, 326.05 K | 0.0068
in methanol, 328.15 K | 0.0072
in n-butanol, 309.65 K | 0.0039
in n-butanol, 314.35 K | 0.0044
in n-butanol, 319.95 K | 0.0052
in n-butanol, 324.45 K | 0.0057
in n-butanol, 328.05 K | 0.0062
in n-butanol, 332.15 K | 0.007
in n-butanol, 335.25 K | 0.0076
in n-butanol, 338.05 K | 0.0081
in n-butanol, 340.95 K | 0.0091
in n-butanol, 345.45 K | 0.0099
in n-butanol, 347.95 K | 0.0104
in n-propanol, 303.75 K | 0.0033
in n-propanol, 305.65 K | 0.0039
in n-propanol, 311.65 K | 0.0043
in n-propanol, 315.35 K | 0.0049
in n-propanol, 318.85 K | 0.0054
in n-propanol, 322.55 K | 0.0059
in n-propanol, 326.65 K | 0.0064
in n-propanol, 330.45 K | 0.007
in n-propanol, 337.95 K | 0.0091
in n-propanol, 340.15 K | 0.0093
in n-propanol, 341.95 K | 0.01
in n-propanol, 345.95 K | 0.0113
in n-propanol, 348.15 K | 0.0122
in sec-butanol, 302.45 K | 0.0025
in sec-butanol, 306.35 K | 0.0033
in sec-butanol, 309.25 K | 0.004
in sec-butanol, 314.15 K | 0.0049
in sec-butanol, 317.65 K | 0.0057
in sec-butanol, 322.15 K | 0.0071
in sec-butanol, 326.25 K | 0.0085
in sec-butanol, 331.35 K | 0.0098
in sec-butanol, 339.35 K | 0.0117
in sec-butanol, 342.35 K | 0.0126
in tert-butanol, 303.65 K | 0.0026
in tert-butanol, 307.95 K | 0.0038
in tert-butanol, 312.15 K | 0.0047
in tert-butanol, 315.35 K | 0.0059
in tert-butanol, 318.35 K | 0.0073
in tert-butanol, 321.15 K | 0.0091
in tert-butanol, 324.55 K | 0.0106
in tert-butanol, 328.75 K | 0.0125
in tert-butanol, 331.65 K | 0.0141
in tert-butanol, 334.95 K | 0.016
in tert-butanol, 338.45 K | 0.0177
in tert-butanol, 342.65 K | 0.0194
in tert-butanol, 345.65 K | 0.0203
